“Also recorded” adds a separate entry of the source. Where two headings read alike, the source gives them in different places.
Tests used:
[1] = Dose escalation (phase 1a): dose-limiting toxicity, MTD, RP2D; type: in vivo; settings: once-daily oral doses of 30 to 300 mg/day
Description: Phase 1 of the study comprised a dose-escalation phase (1a) to identify the MTD using a rolling 6 patient dose-escalation design with 7 dose levels. Two doses of palazestrant (60 mg/day and 120 mg/day) were selected for the dose-expansion phase (1b) to further characterize the safety, PK, and preliminary antitumor activity of treatment and to establish the RP2D. Phase 2 further explored the safety and antitumor activity of palazestrant at the RP2D (120 mg/day) in patients with measurable disease (primary cohort), nonmeasurable evaluable disease (exploratory cohort), and central nervous system (CNS) metastases (exploratory cohort). […]
All DLT analyses (phase 1a) were performed in patients enrolled in the study during cycle 1 and who either received 75% of the planned palazestrant doses or experienced a DLT during cycle 1. […] All safety analyses were performed and PFS assessed in patients who received at least 1 dose of palazestrant. Clinical response (CR or PR) was assessed in patients who received at least 1 cycle of palazestrant, had measurable disease at baseline, and had at least 1 postbaseline tumor assessment. CBR was assessed in patients who received at least 1 cycle of palazestrant, had at least 1 postbaseline tumor assessment, and started their first dose at least 24 weeks before data cutoff. […]

[2] = tested on: ERα; assay: ERα immunohistochemistry (Allred score) of tumor samples; type: in vivo, human; settings: cycle 3 day 1 (N = 12), all dose levels; baseline 6.67 (N = 18); P = 0.13
Description: All immunohistochemistry analyses from tumor samples were performed at ICON Central Laboratories (Farmingdale, NY, USA) using the Ventana® BenchMark ULTRA™ automated staining instrument (Oro Valley, AZ, USA). Positive- and negative-control tissue and negative reagent controls were run for each marker, as well as low-ER controls for each run. Estrogen receptor levels were estimated as the number of positive tumor nuclei divided by the total number of tumor nuclei, expressed as a percentage for each receptor type. Evaluation of Ki67 was performed in accordance with Ki67 Working Group recommendations: 1) only nuclear staining was assessed as positive; 2) in cases of tumor heterogeneity (hot spots), 2 counts were performed and the average was reported; and 3) lymphocyte-rich areas were avoided when possible. Presence of activating ESR1 mutations (amino acid regions 370–381, 460–473, and 529–538) and their mutant allele fractions (MAFs) were determined in cell-free DNA (cfDNA), collected at baseline and at 8 weeks on treatment using the SafeSEQ Breast Cancer Panel (Sysmex Inostics, Baltimore, MD, USA).
In patients who underwent biomarker testing, samples collected on cycle 3 day 1 of treatment across all dose levels were compared to baseline samples to assess changes during treatment. […]

[3] = tested on: ER+/HER2− advanced or metastatic breast cancer; design: method as in ref 41 = [41]; 41. Lin NU, Borges VF, Patel MR, Okera M, Meisel J, Wesolowski R, et al. Results from the phase I/II study of OP-1250, an oral complete estrogen receptor (ER) antagonist (CERAN) and selective ER degra; settings: cited from earlier work
[4] = second- or third-line subanalysis, cancers with ESR1 mutations

Q: Which “maximum tolerated dose (MTD)” value [1] does the source give for CCCN1CC(Oc2ccc([C@@H]3c4[nH]c5ccccc5c4C[C@@H](C)N3CC(C)(C)F)cc2)C1 [palazestrant, Palazestrant] here?
A: not reached; also recorded: no MTD was identified

Q: And the “ERα Allred score on treatment” value [2]?
A: 5.17

Q: And the “median PFS” value ([3]; 49 patients, second- or third-line therapy with or without prior chemotherapy)?
A: 7.2 months

Q: And the CBR ([3]; 49 patients, second- or third-line therapy, overall)?
A: 48%

Q: And the CBR [3, 4]?
A: 59%

Q: And the PFS [3, 4]?
A: 7.3 months
